In assay [1] the test system is feline iris sphincter smooth muscle. Put plainly: Isolated cat iris sphincter smooth muscle contraction. To be noted: for % Maximal contractile response mean χ ± SEM: reference contraction 10^−7 M PGF2α, n = 4. The protocol: (§1) Smooth muscle tension of isolated tissues was measured isometrically with force displacement transducers (Grass FT-03) and recorded on Grass Polygraphs (Models 7G and 79E). The organ baths contained Krebs solution maintained at 37° C. and gassed with 95% 02/5% CO2 to give a pH of 7.4. The Krebs solution had the following composition (mM): NaCl, 118.0; KCl, 4.7; KH2PO4, 1.2; CaCl2, 1.9; MgSO4, 1.18; NaHCO3, 25.0; glucose, 11.7; indomethacin, 0.001.
Adult domestic cats were sacrificed by intravenous overdose of sodium pentobarbital (Anthony, Arcadia, Calif.). The eyes were enucleated immediately and placed on ice. The iris sphincter muscle was mounted vertically under 50 to 100 mg tension in a jacketed 10 ml organ bath. A 60 min stabilization period was allowed before commencing each experiment. Activity was determined as contractile responses. Compounds were added cumulatively to the organ bath and at least 30 min was allowed for recovery, after complete wash-out, and return to baseline tension. […] No more than two compounds were tested in each tissue.

Assay [2] concerns isolated guinea pig ileum (EP1 receptor preparation). As to the kind of experiment: Isolated guinea pig ileum contraction. The protocol:
as §1
The guinea pig ileum is an EP1 receptor preparation. An approximately 1.5 cm segment of guinea pig ileum was suspended in a jacketed organ bath under 1 g tension. Following a 1 hr equilibration period, a wash-out dose response curve for PGE2 was obtained. 30 min wash-out periods were allowed between doses. […] A final administration of PGE2 10^−6 M was given as a reference. Data were expressed as % maximal of the PGE2 response.

In assay [3] the test system is rabbit jugular vein segment. As to the kind of experiment: Vasorelaxation of histamine precontracted rabbit jugular vein segment. The protocol: as §1
New Zealand albino rabbit of either sex, weighing 2-4 kg, were injected with 1000 U heparin into the marginal ear vein and then sacrificed by CO2 gas. The external jugular veins were cleared of fat and adherent connective tissue and removed. The veins were transected and each ring of 3-4 mm length was suspended between two metal hooks in a jacketed organ bath. The tissues were equilibrated for 1 hr under 0.75 g tension, which was readjusted as the tissues relaxed. Single doses of histamine, 10^−5 M then 2-3×10^−6 M, with washing after each dose, were given to contract the tissue and establish responsiveness. The TP-receptor antagonist SQ29548, (Ogletree et al. (1985) J. Pharmacol. Exp. Ther. 234 435-441) at (10^−6 M), was applied for 5 min and then histamine 2-3×10^−6 M was added to elicit the contractile response. After 30 min of pretreatment with the histamine, the relaxant response was tested by adding cumulative doses of the test compounds with 10^−8 M to 10^−7 M PGE2 at the end of each dose-response curve as a reference. A recovery period of 30-50 min was allowed after wash-out of the tissues. Relaxant activity was calculated as % of the control tone elicited by histamine.

The target of assay [4] is recombinant feline FP receptor (Felis catus, UniProt A0ABI7XJ69). Put plainly: Total inositol phosphate accumulation, HEK-293 cells with recombinant feline FP receptor. To be noted: read-out: E.C.50, total inositol phosphate accumulation. The assay is classed as cell-based, cat. The protocol: Ten days after transfection, hygromycin B resistant clones were individually selected and transferred to a separate well on a 24 well plate. At confluence each clone was transferred to one well of a 6 well plate, and then expanded in a 10 cm dish. Cells were maintained under continuous hygromycin selection until use. The stable cat FP receptor transfectants were similarly prepared using […]. Again cells were grown to 50-60% confluency on 10 cm plates and the plasmid pCEP4, incorporating cDNA inserts for the feline FP receptor, was transfected using lipofectin. Hygromycin B selection was started 48 hr post-transfection. Eight days after transfection, hygromycin B resistant clones were selected and transferred to 24 well plates. Ca^2+ signaling studies on recombinant cat and human FP receptors were performed in an identical manner to that described for the CRL 1497 cell studies.
Receptor-mediated phosphoinositide (PI) hydrolysis was determined by measuring the accumulation of total inositol phosphates (IP) in cells preincubated with ^3H-myoinositol. Stable cell lines of HEK 293 cells expressing human or cat FP receptors were plated in 10 cm dishes (10^6 cells per dish in DMEM with 10% FBS). […] The eluate was mixed with 10 ml Aquasol scintillation fluid (Packard Instrument Co.) and total [^3H] inositol phosphates was determined by a liquid scintillation counter.

The subject of the next assay is dog intraocular pressure. As to the kind of experiment: Intraocular pressure in conscious Beagle dogs. The assay is classed as in vivo. To be noted: 0.1% dose, topical. The protocol:
Intraocular pressure studies in dogs involved pneumatonometry performed in conscious, Beagle dogs of both sexes (10-15 kg). The animals remained conscious throughout the study and were gently restrained by hand. Drugs were administered topically to one eye as a 25 μL volume drop, the other eye received 25 μL vehicle (0.1% polysorbate 80:10 mM TRIS) as a control. 0.1% proparacaine was used for corneal anesthesia during tonometry. Intraocular pressure was determined just before drug administration and at 2, 4 and 6 hr thereafter on each day of the 5 day study. Drug was administered immediately after the first IOP reading.

Each structure is given as a SMILES string.

Sequence of recombinant feline FP receptor (A0ABI7XJ69 entry or part of it): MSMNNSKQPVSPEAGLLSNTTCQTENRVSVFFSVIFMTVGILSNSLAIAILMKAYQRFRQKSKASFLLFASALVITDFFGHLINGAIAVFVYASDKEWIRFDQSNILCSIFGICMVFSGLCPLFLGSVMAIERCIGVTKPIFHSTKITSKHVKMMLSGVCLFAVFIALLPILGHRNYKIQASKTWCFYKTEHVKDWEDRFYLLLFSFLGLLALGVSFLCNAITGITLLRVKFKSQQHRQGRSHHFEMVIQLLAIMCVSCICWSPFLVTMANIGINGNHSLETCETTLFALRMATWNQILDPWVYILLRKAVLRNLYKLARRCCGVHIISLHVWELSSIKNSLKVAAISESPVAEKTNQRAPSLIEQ

Regarding `CCCCC[C@H](O)/C=C/[C@@H]1[C@@H](C/C=C\CCCC(=O)NCCO)[C@@H](O)C[C@H]1O` [PGF2α 1-ethanolamide, (5Z,8α,9α,11α,13E,15S)-9,11,15-trihydroxy-N-(2-hydroxyethyL)prosta-5,13-dien-1-amide], the “% Maximal contractile response mean χ ± SEM” value in assay [1] (10^−5 M) came out at 126.0 ± 3.6%; in assay [1] (10^−6 M), 119.2 ± 6.0%; in assay [1] (10^−7 M), 77 ± 5.5%; in assay [1] (10^−8 M), 2.7 ± 1.7%. The EC50 in assay [1] (Felis catus, isolated feline iris sphincter, read-out: effective concentration (E.C.)50, contraction of cat iris sphincter smooth muscle) is 0.058 µM; in assay [3] (Oryctolagus cuniculus, histamine precontracted, read-out: E.C.50, vasorelaxation of the precontracted rabbit jugular vein segment) it was 2 µM; in assay [4], 0.524 µM. The molecule also showed a threshold concentration in assay [1] (isolated feline iris sphincter contraction) of around 10 nM. The Emax at 10 µM in assay [2] (Cavia porcellus, 10^−5 M, reference contraction PGE2 10^−6 M, n = 4, read-out: % Maximal response mean χ ± SEM) was found to be 9.7 ± 4.2%. Besides, the Emax at 1 µM in assay [2] (Cavia porcellus, 10^−6 M, reference contraction PGE2 10^−6 M, n = 4, read-out: % Maximal response mean χ ± SEM) was determined as 4 ± 2.6%. In assay [2] (Cavia porcellus, 10^−7 M, reference contraction PGE2 10^−6 M, n = 4, read-out: % Maximal response mean χ ± SEM), the Emax at 0.1 µM was 0%. In addition, the Emax at 0.01 µM in assay [2] (Cavia porcellus, 10^−8 M, reference contraction PGE2 10^−6 M, n = 4, read-out: % Maximal response mean χ ± SEM) is 0%. Also, the “effect in the guinea pig ileum” value in assay [2] (compared with chick ileum) is recorded as “less effective”. In addition, the endothelium dependent vasorelaxation entry in assay [3] (histamine precontracted rabbit jugular vein segment) is reported as “relatively little activity”. Further, the “duration of intraocular pressure effect” value with dog intraocular pressure is given as “persisted over the entire 24 hr experimental period”. The “effect on intraocular pressure” value with dog intraocular pressure is “marked and highly significant decrease”.
